Source: ChEMBL document CHEMBL1201862, “PubChem BioAssay data set” (2004)
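Step 1: Grow cells in 96-well plates. Step 2: Expose to compound for 48 hours at 5 concentrations. Step 3: Interpolate endpoints linearly; if unreached, use highest concentration. GI50 is the concentration that inhibits growth by half.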 Activity calls are given as the source filed them. Cut-off read from the data, not from the text of the source: active = GI50 up to about 1.1 µM and inactive = higher.

Experiments:
Experiment in all cases: growth of human tumour cells (NCI), 48 h
[1] = test system: 786-0
[2] = test system: A498
[3] = test system: A549
[4] = test system: ACHN
[5] = test system: BT-549
[6] = test system: CAKI-1
[7] = test system: CCRF-CEM
[8] = test system: COLO 205
[9] = test system: DU-145
[10] = test system: EKVX
[11] = test system: HCC 2998
[12] = test system: HCT-116
[13] = test system: HL-60
[14] = test system: HOP-62
[15] = test system: HOP-92
[16] = test system: Hs-578T
[17] = test system: IGROV-1
[18] = test system: K562
[19] = test system: KM12
[20] = test system: M14
[21] = test system: MDA-MB-231
[22] = test system: MDA-MB-435
[23] = test system: MDA-N
[24] = test system: MOLT-4
[25] = test system: Malme-3M
[26] = test system: NCI-H226
[27] = test system: NCI-H23
[28] = test system: NCI-H460
[29] = test system: OVCAR-3
[30] = test system: OVCAR-4
[31] = test system: OVCAR-5
[32] = test system: OVCAR-8
[33] = test system: PC-3
[34] = test system: RPMI-8226
[35] = test system: RXF 393
[36] = test system: SF-268
[37] = test system: SF-295
[38] = test system: SF-539
[39] = test system: SK-MEL-28
[40] = test system: SK-MEL-2
[41] = test system: SK-MEL-5
[42] = test system: SK-OV-3
[43] = test system: SN12C
[44] = test system: SNB-19
[45] = test system: SNB-75
[46] = test system: SR
[47] = test system: SW-620
[48] = test system: T47D
[49] = test system: U-251
[50] = test system: UACC-62
[51] = test system: UO-31
[52] = test system: HCT-15
[53] = test system: HT-29
[54] = test system: LOX IMVI
[55] = test system: MCF7
[56] = test system: NCI-H522
[57] = test system: TK-10
[58] = test system: UACC-257

In the case of `CCOC(=O)C(NC(=O)c1cccc(Cl)c1)(N1CCN(c2cc3c(cc2F)c(=O)c(C(=O)O)cn3C2CC2)CC1)C(F)(F)F` (stereo unspecified), the GI50 [1] is reported as 14.6 µM (inactive), the GI50 [2] is reported as 20 µM (inactive) and the GI50 [3] is reported as 15.2 µM (inactive). The GI50 [4] was 15.5 µM (inactive), the GI50 [5] was 18.9 µM (inactive) and the GI50 [6] was 17.3 µM (inactive). The GI50 [7] was 2.67 µM (inactive), the GI50 [8] was 16.6 µM (inactive) and the GI50 [9] was 25.4 µM (inactive). For the same compound, the GI50 [10] was 18.6 µM (inactive), the GI50 [11] was 19.4 µM (inactive) and the GI50 [12] was 12.7 µM (inactive). For the same compound, the GI50 [13] was 2.67 µM (inactive), the GI50 [14] was 22.2 µM (inactive) and the GI50 [15] was 16.3 µM (inactive). The GI50 [16] was 20.7 µM (inactive), the GI50 [17] was 16.1 µM (inactive) and the GI50 [18] was 4.78 µM (inactive). The GI50 [19] was 11.5 µM (inactive), the GI50 [20] was 15.9 µM (inactive) and the GI50 [21] was 15.6 µM (inactive). The GI50 [22] was 14.2 µM (inactive), the GI50 [23] was 15.2 µM (inactive) and the GI50 [24] was 3.71 µM (inactive). The GI50 [25] was 18 µM (inactive), the GI50 [26] was 19.5 µM (inactive) and the GI50 [27] was 15.4 µM (inactive). The GI50 [28] was 16.7 µM (inactive), the GI50 [29] was 10.7 µM (inactive) and the GI50 [30] was 15.7 µM (inactive). For the same compound, the GI50 [31] was 16.7 µM (inactive), the GI50 [32] was 17.5 µM (inactive) and the GI50 [33] was 13.7 µM (inactive). The GI50 [34] was 3.94 µM (inactive), the GI50 [35] was 17 µM (inactive) and the GI50 [36] was 12.5 µM (inactive). The GI50 [37] was 21.6 µM (inactive), the GI50 [38] was 16.7 µM (inactive) and the GI50 [39] was 16.5 µM (inactive). The GI50 [40] was 14.7 µM (inactive), the GI50 [41] was 12.9 µM (inactive) and the GI50 [42] was 23.4 µM (inactive). The GI50 [43] was 26.9 µM (inactive), the GI50 [44] was 22.2 µM (inactive) and the GI50 [45] was 20.2 µM (inactive). The GI50 [46] was 6.61 µM (inactive), the GI50 [47] was 12.2 µM (inactive) and the GI50 [48] was 19.1 µM (inactive). For the same compound, the GI50 [49] was 5.24 µM (inactive), the GI50 [50] was 15.3 µM (inactive) and the GI50 [51] was 20.1 µM (inactive).
In the case of `O=C(O)c1cccc(S(=O)(=O)NN2C(=O)CSC2c2ccccc2Cl)c1` (stereo unspecified), the GI50 [1] is reported as > 100 µM (inactive), the GI50 [3] is reported as > 100 µM (inactive) and the GI50 [4] is reported as > 100 µM (inactive). The GI50 [5] was > 100 µM (inactive), the GI50 [6] was > 100 µM (inactive) and the GI50 [7] was > 100 µM (inactive). For the same compound, the GI50 [8] was > 100 µM (inactive), the GI50 [9] was > 100 µM (inactive) and the GI50 [10] was > 100 µM (inactive). The GI50 [11] was > 100 µM (inactive), the GI50 [12] was > 100 µM (inactive) and the GI50 [52] was over 100 µM. For the same compound, the GI50 [13] was > 100 µM (inactive), the GI50 [14] was > 100 µM (inactive) and the GI50 [15] was > 100 µM (inactive). The GI50 [53] was > 100 µM (inactive), the GI50 [16] was > 100 µM (inactive) and the GI50 [17] was > 100 µM (inactive). The GI50 [18] was > 100 µM (inactive), the GI50 [19] was > 100 µM (inactive) and the GI50 [54] was > 100 µM (inactive). For the same compound, the GI50 [20] was > 100 µM (inactive), the GI50 [55] was > 100 µM (inactive) and the GI50 [21] was > 100 µM (inactive). For the same compound, the GI50 [22] was > 100 µM (inactive), the GI50 [23] was > 100 µM (inactive) and the GI50 [24] was > 100 µM (inactive). For the same compound, the GI50 [25] was > 100 µM (inactive), the GI50 [26] was 58.3 µM (inactive) and the GI50 [27] was > 100 µM (inactive). For the same compound, the GI50 [28] was > 100 µM (inactive), the GI50 [56] was > 100 µM (inactive) and the GI50 [29] was > 100 µM (inactive). For the same compound, the GI50 [31] was > 100 µM (inactive), the GI50 [32] was > 100 µM (inactive) and the GI50 [33] was > 100 µM (inactive). The GI50 [34] was 81.3 µM (inactive), the GI50 [35] was > 100 µM (inactive) and the GI50 [36] was > 100 µM (inactive). The GI50 [37] was > 100 µM (inactive), the GI50 [38] was > 100 µM (inactive) and the GI50 [39] was > 100 µM (inactive). The GI50 [40] was > 100 µM (inactive), the GI50 [41] was > 100 µM (inactive) and the GI50 [42] was > 100 µM (inactive). The GI50 [43] was > 100 µM (inactive), the GI50 [44] was > 100 µM (inactive) and the GI50 [45] was > 100 µM (inactive). For the same compound, the GI50 [46] was 4.09 µM (inactive), the GI50 [47] was > 100 µM (inactive) and the GI50 [48] was > 100 µM (inactive). For the same compound, the GI50 [57] was > 100 µM (inactive), the GI50 [49] was > 100 µM (inactive) and the GI50 [58] was > 100 µM (inactive). The GI50 [50] was > 100 µM (inactive) and the GI50 [51] was > 100 µM (inactive).
With `CCCN1CCC(=O)N(CCC(F)(F)C(F)(F)C(F)(F)C(F)(F)C(F)(F)C(F)(F)F)C1=S` the GI50 [1] was > 100 µM (inactive), the GI50 [2] was > 100 µM (inactive) and the GI50 [3] was > 100 µM (inactive). For the same compound, the GI50 [4] was > 100 µM (inactive), the GI50 [5] was > 100 µM (inactive) and the GI50 [6] was > 100 µM (inactive). The GI50 [7] was > 100 µM (inactive), the GI50 [8] was 69.7 µM (inactive) and the GI50 [9] was > 100 µM (inactive). The GI50 [10] was > 100 µM (inactive), the GI50 [11] was 94.6 µM (inactive) and the GI50 [12] was > 100 µM (inactive). For the same compound, the GI50 [13] was > 100 µM (inactive), the GI50 [14] was > 100 µM (inactive) and the GI50 [15] was > 100 µM (inactive). The GI50 [53] was 90.6 µM (inactive), the GI50 [16] was > 100 µM (inactive) and the GI50 [17] was > 100 µM (inactive). For the same compound, the GI50 [18] was > 100 µM (inactive), the GI50 [19] was 71 µM (inactive) and the GI50 [20] was > 100 µM (inactive). For the same compound, the GI50 [55] was > 100 µM (inactive), the GI50 [21] was > 100 µM (inactive) and the GI50 [22] was > 100 µM (inactive). The GI50 [23] was > 100 µM (inactive), the GI50 [24] was > 100 µM (inactive) and the GI50 [25] was > 100 µM (inactive). The GI50 [26] was > 100 µM (inactive), the GI50 [27] was > 100 µM (inactive) and the GI50 [28] was > 100 µM (inactive). For the same compound, the GI50 [56] was > 100 µM (inactive), the GI50 [29] was > 100 µM (inactive) and the GI50 [30] was > 100 µM (inactive). For the same compound, the GI50 [31] was > 100 µM (inactive), the GI50 [32] was > 100 µM (inactive) and the GI50 [33] was > 100 µM (inactive). For the same compound, the GI50 [35] was 99.5 µM (inactive), the GI50 [36] was > 100 µM (inactive) and the GI50 [37] was > 100 µM (inactive). For the same compound, the GI50 [38] was > 100 µM (inactive), the GI50 [39] was > 100 µM (inactive) and the GI50 [41] was > 100 µM (inactive). The GI50 [42] was > 100 µM (inactive), the GI50 [43] was > 100 µM (inactive) and the GI50 [44] was > 100 µM (inactive). The GI50 [45] was > 100 µM (inactive), the GI50 [46] was > 100 µM (inactive) and the GI50 [47] was > 100 µM (inactive). The GI50 [48] was > 100 µM (inactive), the GI50 [57] was > 100 µM (inactive) and the GI50 [49] was > 100 µM (inactive). For the same compound, the GI50 [58] was > 100 µM (inactive), the GI50 [50] was > 100 µM (inactive) and the GI50 [51] was > 100 µM (inactive).
